Data from article PMC2195568 (The Journal of Experimental Medicine, 1999).

Experiments:
[1] = test system: CTLs in the peripheral blood of patients with chronic HCV infection; conditions: cited from earlier work
[2] = test system: PBMCs of patients with chronic HCV infection; assay type: cell-based, human; conditions: HCV core 178 stimulation; result in words
[3] = test system: PBMCs from healthy HCV-seronegative blood donors; assay type: cell-based, human; conditions: of 12 healthy donors
[4] = after stimulation with HCV core 178

In the case of LLALLSCLTV [HCV core 178], the “processing and presentation of the peptide” value [1] is given as “processed and presented via the endogenous MHC class I pathway”, the “recognition by CTLs in patients with chronic HCV infection” value ([1]; peripheral blood) is given as “target epitope for CTLs” and the “percentage of patients having cross-reactive CTLs compared with healthy donors” value [2] is given as “comparable to that of healthy donors”. The “blood donors with induced HCV core 178–specific CTLs” value ([3]; 10 μg/ml peptide, four replica cultures, 5 wk stimulation) was “nine”, the “individuals recognizing HCV core 178 and CYP2A7 8–17” value [3, 4] was “three” and the “individuals recognizing HCV core 178 only” value [3, 4] was “four”. For the same sequence, the “individuals without CTL response” value [3, 4] was “three”.
